Holding throughout (format): biochemical
Test [1] addresses T1, β-secretase(BACE) (Homo sapiens, UniProt P56817).
T1 construct: purchased Panvera
In words: BACE Assay-1 (MCA-substrate, IC50). The conditions noted are these: procedure of Example 158; read-out: IC50 μM (158). The procedure: The following standards are reagents were used in this assay: Sodium Citrate trisodium salt dihydrate (Sigma), Citric Acid monohydrate (Merck), PEG8000 (Sigma), MCA-substrate (Bachem), β-secretase (BACE) (Panvera), 96-well plate zwart (Costar (Elscolab)), StatVal (Bachem).
The following standard assay buffer solution was prepared and used in this assay: 0.05 M, pH 5.0 mixture of sodium citrate trisodium salt dihydrate (9.56 g), citric acid monohydrate (3.68 g) and PEG8000 (0.50 g).
The MCA-substrate stock solution was prepared by mixing 10 mg MCA-substrate with 5 mL DMSO for a final solution concentration of 2.0 mg/mL. The substrate work solution was prepared by mixing 0.1 mL substrate in 1.90 mL assay buffer for a final concentration of 0.05 mM. The β-secretase (BACE) work solution was prepared by mixing 8 μL BACE in 2 mL assay buffer for a final concentration of 10 μg/mL.
The screen procedure for this assay was as follows. 60 μL of assay buffer was pippeted into each well of a 96-well plate. To each well was then pipetted 1 μL of test compound at the selected concentration. To each well was then added 20 μL of the β-secretase work solution and 20 μL of the MCA-substrate stock solution.
The procedure for the blank was as follows. 80 μL of assay buffer was pipetted into each well to be used as a blank control. To each well was then added 1 μL of DMSO and 20 μL of MCA-substrate solution in each well.
The procedure for the positive control was as follows. 60 μL of assay buffer was pipetted into each well to be used as a positive control. To each well was then added 1 μL of DMSO, 20 μL of BACE work solution and 20 μL of MCA-substrate stock solution.
For test compounds, measured at multiple concentrations, the measured T0 and T60 values were used to calculate an IC50 value using Graphpad Software (or PIR).

In test [2] the target is T1, β-secretase(BACE). The experiment in a line: BACE Assay-2 (FS1 substrate, IC50 and Ki). The conditions noted are these: procedure of Example 159, FS1 substrate; for Ki: read-out: Ki μM (159).
In test [3] the target is T1, β-secretase(BACE). In words: BACE FS1% Inhibition Assay. The conditions noted are these: FS1 substrate; for inhibition at 3 µM: read-out: % Inhibition (FS) 3 μM; for inhibition at 10 µM: read-out: % Inhibition (FS) 10 μM. Put shortly:
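Human BACE (4 μg/mL working solution) preincubated 20 min at room temperature with compound, then FS1 substrate (300 μg/mL working solution) added and incubated 1 h at room temperature. Percent inhibition calculated at each compound concentration against blank and vehicle controls.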

SMILES strings stand for the structures.

T1 sequence (P56817 46-501): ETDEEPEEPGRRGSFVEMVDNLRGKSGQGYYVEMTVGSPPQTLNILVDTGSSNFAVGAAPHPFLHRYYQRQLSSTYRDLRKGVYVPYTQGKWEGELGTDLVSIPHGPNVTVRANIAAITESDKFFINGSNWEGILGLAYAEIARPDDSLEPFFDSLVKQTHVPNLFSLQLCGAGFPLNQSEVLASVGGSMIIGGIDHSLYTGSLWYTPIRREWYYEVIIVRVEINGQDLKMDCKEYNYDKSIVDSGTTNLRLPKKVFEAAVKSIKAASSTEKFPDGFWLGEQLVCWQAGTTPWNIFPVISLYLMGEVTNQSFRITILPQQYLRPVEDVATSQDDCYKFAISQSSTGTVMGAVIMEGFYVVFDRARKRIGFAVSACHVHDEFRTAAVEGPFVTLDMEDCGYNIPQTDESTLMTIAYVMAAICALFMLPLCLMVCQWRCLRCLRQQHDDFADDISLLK

With `NC1=Nc2ccc(C(=O)c3ccccc3)cc2CN1CCCOc1ccccc1` [Compound 8], the IC50 at β-secretase(BACE) [1] worked out at 3.1 µM. On β-secretase(BACE) [2], the midpoint of inhibition, the IC50, lay at 15 µM and the Ki was determined as 1.2 µM. `CCCC(CCCC(=O)N(C)C1CCCCC1)N1Cc2cc(Oc3ccccc3)ccc2N=C1N` (stereo not drawn) [Compound 90]: on β-secretase(BACE) [1], the IC50 was determined as 0.074 µM. At β-secretase(BACE) [2], the Ki was found to be 0.22 µM. Moreover, the inhibition at 3 µM on β-secretase(BACE) [3] (3 μM test compound) came out at 106%. Moreover, the inhibition at 10 µM on β-secretase(BACE) [3] (10 μM test compound) was 124%. Consider `CCCC(CCCC(=O)N(C)C1CCN(C)CC1)N1Cc2cc(Oc3ccccc3)ccc2N=C1N` (stereo not drawn) [Compound 106], for which the IC50 at β-secretase(BACE) [1] worked out at 0.15 µM. The Ki on β-secretase(BACE) [2] turned out to be 0.23 µM. Besides, the “% Inhibition (FS) 3 μM” value on β-secretase(BACE) [3] (3 μM test compound) worked out at 103%. In addition, the “% Inhibition (FS) 10 μM” value on β-secretase(BACE) [3] (10 μM test compound) is 114%.

With `CN(C(=O)CCCCN1Cc2cc(Oc3cccc(NS(=O)(=O)c4ccccc4)c3)ccc2N=C1N)C1CCCCC1` [Compound 114], the IC50 on β-secretase(BACE) [1] amounted to 0.079 µM. Besides, the Ki on β-secretase(BACE) [2] amounted to 0.27 µM. For the same compound, the inhibition at 3 µM at β-secretase(BACE) [3] (3 μM test compound) is 109%. For the same compound, the inhibition at 10 µM at β-secretase(BACE) [3] (10 μM test compound) is 126%. As for `CC(C)C(=O)NCCN1Cc2cc(Oc3ccccc3)ccc2N=C1N` [Compound 121], the half-inhibitory concentration (IC50) at β-secretase(BACE) [1] amounted to 0.58 µM. Further, on β-secretase(BACE) [2], the Ki was determined as 0.32 µM. Besides, the inhibition at 3 µM on β-secretase(BACE) [3] (3 μM test compound) was determined as 103%. For the same compound, at β-secretase(BACE) [3] (10 μM test compound), the inhibition at 10 µM is 117%. On to `CCCN1Cc2cc(Oc3cccc(NS(=O)(=O)Cc4ccccc4)c3)ccc2N=C1N` [Compound 269], for which, at β-secretase(BACE) [1], the IC50 worked out at 0.35 µM. The same measure, in the same setting: for `CCCN1Cc2cc(Oc3cccc(NS(=O)(=O)c4cccc(C#N)c4)c3)ccc2N=C1N` [Compound 270] the value was 2.37 µM. On to `CCCN1Cc2cc(Oc3cccc(NS(=O)(=O)c4cccc(OC)c4)c3)ccc2N=C1N` [Compound 271], for which the IC50 at β-secretase(BACE) [1] came to 0.39 µM. Same read-out and setting: for `CCCN1Cc2cc(Oc3cccc(NS(=O)(=O)c4ccc(OC)cc4)c3)ccc2N=C1N` [Compound 272] the value was 0.52 µM.

As for `CCCN1Cc2cc(Oc3cccc(NS(=O)(=O)c4ccc(C)cc4OC)c3)ccc2N=C1N` [Compound 273], the concentration for half-maximal inhibition (IC50) at β-secretase(BACE) [1] worked out at 0.17 µM. The same measure, in the same setting: the same measure for `CCCN1Cc2cc(Oc3cccc(NS(=O)(=O)c4cccc5ccccc45)c3)ccc2N=C1N` [Compound 274]: over 10 µM. Still for that read-out and setting: for `CCCN1Cc2cc(Oc3cccc(NS(=O)(=O)c4ccc5c(c4)OCCO5)c3)ccc2N=C1N` [Compound 275] the value was over 10 µM. Same read-out and setting: the same measure for `CCCN1Cc2cc(Oc3cccc(NS(=O)(=O)c4ccsc4C(=O)OC)c3)ccc2N=C1N` [Compound 276]: over 10 µM; for `CCCN1Cc2cc(Oc3cccc(NS(=O)(=O)c4ccccc4C(F)(F)F)c3)ccc2N=C1N` [Compound 277]: 0.7 µM. With `CCCN1Cc2cc(Oc3cccc(NS(=O)(=O)c4ccc(-c5ccno5)s4)c3)ccc2N=C1N` [Compound 278], the IC50 on β-secretase(BACE) [1] is over 10 µM. On the same count and under the same terms, the same measure for `CCCN1Cc2cc(Oc3cccc(NS(=O)(=O)c4cc(C(=O)O)ccc4OC)c3)ccc2N=C1N` [Compound 279]: over 10 µM; for `CCCN1Cc2cc(Oc3cccc(NS(=O)(=O)c4ccc(-c5ccccc5)cc4)c3)ccc2N=C1N` [Compound 280]: 11 µM. As for `CCCN1Cc2cc(Oc3cccc(NS(=O)(=O)CCc4cccc5ccccc45)c3)ccc2N=C1N` [Compound 281], the IC50 at β-secretase(BACE) [1] was 1.6 µM. The same measure, in the same setting: the same measure for `CCCN1Cc2cc(Oc3cccc(NS(=O)(=O)c4cccc(Br)c4)c3)ccc2N=C1N` [Compound 282]: over 10 µM. On the same count and under the same terms, the same measure for `CCCN1Cc2cc(Oc3cccc(NS(=O)(=O)c4ccc(OC(F)(F)F)cc4)c3)ccc2N=C1N` [Compound 283]: over 10 µM; for `CCCN1Cc2cc(Oc3cccc(NS(=O)(=O)c4ccc(Br)s4)c3)ccc2N=C1N` [Compound 284]: 0.87 µM; for `CCCN1Cc2cc(Oc3cccc(NS(=O)(=O)c4cc(S(=O)(=O)c5ccccc5)cs4)c3)ccc2N=C1N` [Compound 285]: over 10 µM. Same read-out and setting: for `COc1cc(OC)cc(Oc2ccc3c(c2)CN(CCCCC(=O)N(C)C2CCCCC2)C(N)=N3)c1` [Compound 288] the value was over 10 µM; for `CCOC(=O)N1CCC(N2Cc3cc(Oc4cccc(NS(=O)(=O)c5ccc(C)cc5OC)c4)ccc3N=C2N)CC1` [Compound 353], 0.35 µM; for `COc1cc(C)ccc1S(=O)(=O)Nc1cccc(Oc2ccc3c(c2)CN(CCCCCO)C(N)=N3)c1` [Compound 355], 2.6 µM. Regarding `CCOC(=O)N1CCC(N2Cc3cc(Oc4cccc(NS(=O)(=O)c5c(C)cc(C)cc5C)c4)ccc3N=C2N)CC1` [Compound 362], the IC50 at β-secretase(BACE) [1] was found to be 0.53 µM. Same read-out and setting: for `CCOC(=O)N1CCC(N2Cc3cc(Oc4cccc(NS(=O)(=O)c5ccccc5)c4)ccc3N=C2N)CC1` [Compound 376] the value was 0.17 µM; for `NC1=Nc2ccc(Oc3cccc(NS(=O)(=O)c4ccccc4)c3)cc2CN1CCCCCO` [Compound 380], 0.71 µM.

Regarding `Cc1cc(C)c(S(=O)(=O)Nc2cccc(Oc3ccc4c(c3)CN(CCCCCO)C(N)=N4)c2)c(C)c1` [Compound 383], the IC50 at β-secretase(BACE) [1] came out at 0.65 µM.

Consider `CC(C)(C)OC(=O)N1CCC(CN2Cc3cc(Oc4cccc(NS(=O)(=O)c5ccccc5)c4)ccc3N=C2N)CC1` [Compound 384], for which, on β-secretase(BACE) [1], the IC50 amounted to 0.13 µM.

Consider `CCCN1Cc2cc(-c3ccccc3CCNS(=O)(=O)c3ccccc3)ccc2N=C1N` [Compound 385, N-{2-[2-(2-Amino-3-propyl-3,4-dihydro-quinazolin-6-yl)-phenyl]-ethyl}-benzenesulfonamide], for which the IC50 on β-secretase(BACE) [1] came to 0.28 µM. Same read-out and setting: the same measure for `CCCN1Cc2cc([S+]([O-])c3cccc(NS(=O)(=O)c4ccccc4)c3)ccc2N=C1N` (stereo not drawn) [Compound 387, N-[3-(2-Amino-3-propyl-3,4-dihydro-quinazoline-6-sulfinyl)-phenyl]-benzenesulfonamide]: 3.3 µM; for `CC(C)(C)OC(=O)NCCN1Cc2cc(Oc3cccc(NS(=O)(=O)c4ccccc4)c3)ccc2N=C1N` [Compound 394]: 0.87 µM; for `CCCN1Cc2cc(-c3cccc(NS(=O)(=O)c4ccccc4)c3)ccc2N=C1N` [Compound 397]: 3.98 µM. Consider `Cc1ccc(C(CCC(=O)N(C)C2CCCCC2)N2Cc3cc(Oc4ccccc4)ccc3N=C2N)cc1` (stereo not drawn) [Compound 421], for which the IC50 at β-secretase(BACE) [1] turned out to be 0.054 µM. The inhibition at 0.3 µM on β-secretase(BACE) [3] (0.3 μM test compound, read-out: % Inhibition (FS) 0.3 μM) was under 30%. Moreover, the inhibition at 1 µM at β-secretase(BACE) [3] (1 μM test compound, read-out: % Inhibition (FS) 1 μM) worked out at 71%. The inhibition at 3 µM at β-secretase(BACE) [3] (3 μM test compound) stood at 111%. Take `CCCN1Cc2cc(Oc3cccc(C(=O)NCc4c(C)cc(C)cc4C)c3)ccc2N=C1N` [Compound 423]: the IC50 at β-secretase(BACE) [1] was 5.8 µM.

For the compound `CCCN1Cc2cc(Oc3cccc(CNCCc4ccccc4)c3)ccc2N=C1N` [Compound 431], the IC50 on β-secretase(BACE) [1] was 0.8 µM. Still for that read-out and setting: the same measure for `CCCN1Cc2cc(Sc3cccc(NS(=O)(=O)c4c(C)cc(C)cc4C)c3)ccc2N=C1N` [Compound 497]: 0.011 µM; for `CCCN1Cc2cc(Oc3cccc(NCc4c(C)cc(C)cc4C)c3)ccc2N=C1N` [Compound 500]: 0.16 µM; for `CCCN1Cc2cc(Oc3cccc(NCc4c(OC)cccc4OC)c3)ccc2N=C1N` [Compound 501]: 3.4 µM. Still for that read-out and setting: for `CCCN1Cc2cc(Oc3cccc(NCc4ccc(OC)cc4)c3)ccc2N=C1N` [Compound 502] the value was 0.18 µM.

Regarding `CCCN1Cc2cc(Oc3cccc(NCc4ccccc4)c3)ccc2N=C1N` [Compound 507], the IC50 on β-secretase(BACE) [1] turned out to be 0.081 µM.

For the compound `CN(C(=O)CCN1Cc2ccccc2N=C1N)c1ccccc1` [Compound 800], at β-secretase(BACE) [1], the IC50 turned out to be 17 µM.

The values are drawn from patent US8383637B2, “2-amino-quinazoline derivatives useful as inhibitors of β-secretase (BACE)” (Jansssen Pharmaceutica N.V., priority 2004, dated 2013).
